# Laboratory results taken from the supplement of paper PMC10627819.
# Tests used:
# [1] = test system: B. subtilis 168; assay: fitness (endpoint OD595 vs no drug) (fraction); higher = more growth
# How it was run: (§1)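 With the first reading as background, OD595 was measured every 30 min for 14 h in 384-well plates kept at 37 °C and inoculated at OD595 0.01. TSB, LB Lennox or CY was the medium. Fitness is the optical density at the transition into stationary phase divided by the robust mean of no-drug control wells, with a cap of 1.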
# [2] = test system: S. pneumoniae D39V; assay: as above
# How it was run: as §1
# [3] = test system: B. subtilis 168; assay: Bliss interaction score (quartile over a dose matrix) (fitness difference); higher = more antagonism (negative = synergy)
# How it was run: (§2)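 Each OD595 reading at entry into stationary phase was scaled to the robust mean of the untreated wells on its plate, with a ceiling of 1. These ratios define fitness, and single-drug fitness was inferred from combinations. The Bliss score compares observed fitness with the product-based expectation and is reported as quartiles across all replicate types, technical, biological and donor/recipient.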
# [4] = test system: S. aureus DSM 20231; assay: as above
# How it was run: as §2
# [5] = test system: S. aureus Newman; assay: as above
# How it was run: as §2
# [6] = test system: S. pneumoniae D39V; assay: as above
# How it was run: as §2
# 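For Bliss interaction score (quartile over a dose matrix) in this document: first quartile when negative (synergy) and third quartile when positive (antagonism).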
# 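For fitness (endpoint OD595 vs no drug) in this document: OD595 on entry to stationary phase over no-drug wells; at most 1.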
smiles,measurement,setting,value
CO/N=C(\C(=O)N[C@@H]1C(=O)N2C(C(=O)O)=C(COC(C)=O)CS[C@H]12)c1csc(N)n1 [Cefotaxime] + CCC(C)C1C(=O)NC(=C)C(=O)NC(C(=O)NC(CSCC(C(=O)N1)NC(=O)/C(=C/C)/NC(=O)C(C(C)CC)N)C(=O)NC2C(SCC(NC(=O)CNC(=O)C3CCCN3C2=O)C(=O)NC(CCCCN)C(=O)NC4C(SCC(NC(=O)CNC(=O)C(NC(=O)C(NC(=O)C(NC(=O)CNC4=O)C)CC(C)C)CCSC)C(=O)NC(CC(=O)N)C(=O)NC(CCSC)C(=O)NC(CCCCN)C(=O)NC5C(SCC6C(=O)NC(C(=O)NC(CSC(C(C(=O)N6)NC(=O)C(NC5=O)C)C)C(=O)NC(CO)C(=O)NC(C(C)CC)C(=O)NC(CC7=CN=CN7)C(=O)NC(C(C)C)C(=O)NC(=C)C(=O)NC(CCCCN)C(=O)O)CC8=CN=CN8)C)C)C)CC(C)C [Nisin],fitness,"[1]; first compound 0.00775 µg/mL, partner 0.5 µg/mL, one replicate, main component drawn",0.825
same,fitness,"[1]; first compound 0.00775 µg/mL, partner 1 µg/mL, one replicate, main component drawn",0.74
same,fitness,"[1]; first compound 0.00775 µg/mL, partner 2 µg/mL, one replicate, main component drawn",0.508
same,fitness,"[1]; first compound 0.0155 µg/mL, partner 0.5 µg/mL, one replicate, main component drawn",0.704
same,fitness,"[1]; first compound 0.0155 µg/mL, partner 1 µg/mL, one replicate, main component drawn",0.605
same,fitness,"[1]; first compound 0.0155 µg/mL, partner 2 µg/mL, one replicate, main component drawn",0.434
same,fitness,"[1]; first compound 0.031 µg/mL, partner 0.5 µg/mL, one replicate, main component drawn",0.513
same,fitness,"[1]; first compound 0.031 µg/mL, partner 1 µg/mL, one replicate, main component drawn",0.432
same,fitness,"[1]; first compound 0.031 µg/mL, partner 2 µg/mL, one replicate, main component drawn",0.251
same,fitness,"[1]; first compound 0.0625 µg/mL, partner 1.25 µg/mL, one replicate, main component drawn",0.397
same,fitness,"[1]; first compound 0.0625 µg/mL, partner 1.6 µg/mL, one replicate, main component drawn",0.18
same,fitness,"[1]; first compound 0.0625 µg/mL, partner 2.5 µg/mL, one replicate, main component drawn",0.0546
same,fitness,"[1]; first compound 0.0625 µg/mL, partner 3.2 µg/mL, one replicate, main component drawn",0.0399
same,fitness,"[1]; first compound 0.0625 µg/mL, partner 5 µg/mL, one replicate, main component drawn",0.0497
same,fitness,"[1]; first compound 0.0625 µg/mL, partner 6.4 µg/mL, one replicate, main component drawn",0.0827
same,fitness,"[1]; first compound 0.125 µg/mL, partner 1.25 µg/mL, one replicate, main component drawn",0.176
same,fitness,"[1]; first compound 0.125 µg/mL, partner 1.6 µg/mL, one replicate, main component drawn",0.0847
same,fitness,"[1]; first compound 0.125 µg/mL, partner 2.5 µg/mL, one replicate, main component drawn",0.0355
same,fitness,"[1]; first compound 0.125 µg/mL, partner 3.2 µg/mL, one replicate, main component drawn",0.0507
same,fitness,"[1]; first compound 0.125 µg/mL, partner 5 µg/mL, one replicate, main component drawn",0.0352
same,fitness,"[1]; first compound 0.125 µg/mL, partner 6.4 µg/mL, one replicate, main component drawn",0.0748
same,fitness,"[1]; first compound 0.25 µg/mL, partner 1.25 µg/mL, one replicate, main component drawn",0.109
same,fitness,"[1]; first compound 0.25 µg/mL, partner 1.6 µg/mL, one replicate, main component drawn",0.0456
same,fitness,"[1]; first compound 0.25 µg/mL, partner 2.5 µg/mL, one replicate, main component drawn",0.0476
same,fitness,"[1]; first compound 0.25 µg/mL, partner 3.2 µg/mL, one replicate, main component drawn",0.0432
same,fitness,"[1]; first compound 0.25 µg/mL, partner 5 µg/mL, one replicate, main component drawn",0.0316
same,fitness,"[1]; first compound 0.25 µg/mL, partner 6.4 µg/mL, one replicate, main component drawn",0.0433
same,fitness,"[1]; first compound 0.5 µg/mL, partner 0.5 µg/mL, one replicate, main component drawn",0.105
same,fitness,"[1]; first compound 0.5 µg/mL, partner 1 µg/mL, one replicate, main component drawn",0.0334
same,fitness,"[1]; first compound 0.5 µg/mL, partner 2 µg/mL, one replicate, main component drawn",0.0461
same,fitness,"[1]; first compound 0.5 µg/mL, partner 4 µg/mL, one replicate, main component drawn",0.0435
same,fitness,"[1]; first compound 0.5 µg/mL, partner 8 µg/mL, one replicate, main component drawn",0.0411
same,fitness,"[1]; first compound 0.5 µg/mL, partner 16 µg/mL, one replicate, main component drawn",0.025
same,fitness,"[1]; first compound 1 µg/mL, partner 0.5 µg/mL, one replicate, main component drawn",0.0988
same,fitness,"[1]; first compound 1 µg/mL, partner 1 µg/mL, one replicate, main component drawn",0.0354
same,fitness,"[1]; first compound 1 µg/mL, partner 2 µg/mL, one replicate, main component drawn",0.0395
same,fitness,"[1]; first compound 1 µg/mL, partner 4 µg/mL, one replicate, main component drawn",0.0388
same,fitness,"[1]; first compound 1 µg/mL, partner 8 µg/mL, one replicate, main component drawn",0.0243
same,fitness,"[1]; first compound 1 µg/mL, partner 16 µg/mL, one replicate, main component drawn",0.0126
same,fitness,"[1]; first compound 2 µg/mL, partner 0.5 µg/mL, one replicate, main component drawn",0.0708
same,fitness,"[1]; first compound 2 µg/mL, partner 1 µg/mL, one replicate, main component drawn",0.0361
same,fitness,"[1]; first compound 2 µg/mL, partner 2 µg/mL, one replicate, main component drawn",0.0552
same,fitness,"[1]; first compound 2 µg/mL, partner 4 µg/mL, one replicate, main component drawn",0.0578
same,fitness,"[1]; first compound 2 µg/mL, partner 8 µg/mL, one replicate, main component drawn",0.0592
same,fitness,"[1]; first compound 2 µg/mL, partner 16 µg/mL, one replicate, main component drawn",0.0351
same,fitness,"[2]; first compound 0.0018 µg/mL, partner 0.4275 µg/mL, main component drawn",0.995
same,fitness,"[2]; first compound 0.0018 µg/mL, partner 0.855 µg/mL, main component drawn",≥ 1
same,fitness,"[2]; first compound 0.0018 µg/mL, partner 1.6 µg/mL, main component drawn",0.0249
same,fitness,"[2]; first compound 0.0018 µg/mL, partner 1.71 µg/mL, main component drawn",0.0807
same,fitness,"[2]; first compound 0.0018 µg/mL, partner 3.2 µg/mL, main component drawn",0.0291
same,fitness,"[2]; first compound 0.0018 µg/mL, partner 6.4 µg/mL, main component drawn",0.0188
same,fitness,"[2]; first compound 0.0035 µg/mL, partner 0.4275 µg/mL, main component drawn",0.896
same,fitness,"[2]; first compound 0.0035 µg/mL, partner 0.855 µg/mL, main component drawn",0.936
same,fitness,"[2]; first compound 0.0035 µg/mL, partner 1.6 µg/mL, main component drawn",0.0152
same,fitness,"[2]; first compound 0.0035 µg/mL, partner 1.71 µg/mL, main component drawn",0.0712
same,fitness,"[2]; first compound 0.0035 µg/mL, partner 3.2 µg/mL, main component drawn",0.0408
same,fitness,"[2]; first compound 0.0035 µg/mL, partner 6.4 µg/mL, main component drawn",0.0145
same,fitness,"[2]; first compound 0.007 µg/mL, partner 0.4275 µg/mL, main component drawn",0.835
same,fitness,"[2]; first compound 0.007 µg/mL, partner 0.855 µg/mL, main component drawn",0.577
same,fitness,"[2]; first compound 0.007 µg/mL, partner 1.6 µg/mL, main component drawn",0.0188
same,fitness,"[2]; first compound 0.007 µg/mL, partner 1.71 µg/mL, main component drawn",0.0886
same,fitness,"[2]; first compound 0.007 µg/mL, partner 3.2 µg/mL, main component drawn",0.0158
same,fitness,"[2]; first compound 0.007 µg/mL, partner 6.4 µg/mL, main component drawn",0.0145
same,Bliss interaction score,[3]; main component drawn,-0.0392
same,Bliss interaction score,[4]; main component drawn,-0.199
same,Bliss interaction score,[5]; main component drawn,-0.0293
same,Bliss interaction score,[6]; main component drawn,-0.051
CO/N=C(\C(=O)N[C@@H]1C(=O)N2C(C(=O)O)=C(COC(C)=O)CS[C@H]12)c1csc(N)n1 [Cefotaxime] + CN(C)C(=O)C(CCN1CCC(O)(c2ccc(Cl)cc2)CC1)(c1ccccc1)c1ccccc1 [Loperamide],fitness,"[1]; first compound 0.00775 µg/mL, partner 25 µg/mL, one replicate",0.406
same,fitness,"[1]; first compound 0.00775 µg/mL, partner 50 µg/mL, one replicate",0.0446
same,fitness,"[1]; first compound 0.00775 µg/mL, partner 100 µg/mL, one replicate",0.0412
same,fitness,"[1]; first compound 0.0155 µg/mL, partner 25 µg/mL, one replicate",0.0668
same,fitness,"[1]; first compound 0.0155 µg/mL, partner 50 µg/mL, one replicate",0.0311
same,fitness,"[1]; first compound 0.0155 µg/mL, partner 100 µg/mL, one replicate",0.0228
same,fitness,"[1]; first compound 0.031 µg/mL, partner 25 µg/mL, one replicate",0.0762
same,fitness,"[1]; first compound 0.031 µg/mL, partner 50 µg/mL, one replicate",0.0295
same,fitness,"[1]; first compound 0.031 µg/mL, partner 100 µg/mL, one replicate",0.0243
same,fitness,"[1]; first compound 0.5 µg/mL, partner 25 µg/mL",0.0401
same,fitness,"[1]; first compound 0.5 µg/mL, partner 50 µg/mL",0.0447
same,fitness,"[1]; first compound 0.5 µg/mL, partner 100 µg/mL",0.0339
same,fitness,"[1]; first compound 1 µg/mL, partner 25 µg/mL",0.0257
same,fitness,"[1]; first compound 1 µg/mL, partner 50 µg/mL",0.0406
same,fitness,"[1]; first compound 1 µg/mL, partner 100 µg/mL",0.032
same,fitness,"[1]; first compound 2 µg/mL, partner 25 µg/mL",0.0689
same,fitness,"[1]; first compound 2 µg/mL, partner 50 µg/mL",0.0803
same,fitness,"[1]; first compound 2 µg/mL, partner 100 µg/mL",0.0709
same,fitness,"[2]; first compound 0.0018 µg/mL, partner 17.14 µg/mL",0.977
same,fitness,"[2]; first compound 0.0018 µg/mL, partner 20 µg/mL",0.988
same,fitness,"[2]; first compound 0.0018 µg/mL, partner 34.28 µg/mL",0.984
same,fitness,"[2]; first compound 0.0018 µg/mL, partner 40 µg/mL",≥ 1
same,fitness,"[2]; first compound 0.0018 µg/mL, partner 68.57 µg/mL, one replicate",≥ 1
same,fitness,"[2]; first compound 0.0018 µg/mL, partner 80 µg/mL",≥ 1
same,fitness,"[2]; first compound 0.0035 µg/mL, partner 17.14 µg/mL",0.981
same,fitness,"[2]; first compound 0.0035 µg/mL, partner 20 µg/mL",0.984
same,fitness,"[2]; first compound 0.0035 µg/mL, partner 34.28 µg/mL",0.935
same,fitness,"[2]; first compound 0.0035 µg/mL, partner 40 µg/mL",0.977
same,fitness,"[2]; first compound 0.0035 µg/mL, partner 68.57 µg/mL, one replicate",0.999
same,fitness,"[2]; first compound 0.0035 µg/mL, partner 80 µg/mL",0.956
same,fitness,"[2]; first compound 0.007 µg/mL, partner 20 µg/mL",0.898
same,fitness,"[2]; first compound 0.007 µg/mL, partner 40 µg/mL",0.842
same,fitness,"[2]; first compound 0.007 µg/mL, partner 68.57 µg/mL, one replicate",0.761
same,fitness,"[2]; first compound 0.007 µg/mL, partner 80 µg/mL",0.262
same,Bliss interaction score,[3],-0.0982
same,Bliss interaction score,[4],-0.0602
same,Bliss interaction score,[5],0.0269
same,Bliss interaction score,[6],-0.0572
